Source: patent US20170086461A1, “SYNERGISTIC ANTIMICROBIAL COMPOSITION” (Dow Global Technologies LLC, priority 2015, published 2017)

Test system: Pseudomonas aeruginosa DSM # 939
Test: Minimum Inhibitory Concentration (MIC) test with synergy index (Kull method)
Assay type: cell-based
Details: single biocide acting alone; TSB broth, 30° C., 48 hours, ~1×10^6 CFU/ml
Experimental: The synergism of the biocides combination of the present invention was determined using the method described by Kull, F.C., et. al in Applied Microbiology 9:538-541 (1961).
The formula to calculate the synergy index (SI) is
• QA=concentration of compound A in ppm, acting alone produced an end point (growth/no growth) • Qa=concentration of compound A in ppm, in the mixture, which produced an end point (growth/no growth) • QB=concentration of compound B in ppm, acting alone produced an end point (growth/no growth) • Qb=concentration of compound B in ppm, in the mixture, which produced an end point (growth/no growth)
The Minimum Inhibitory Test (MIC) is designed to evaluate the lowest concentration of a biocide, biocide blend or biocide combination to prevent bacteria growing in a defined broth.
Minimum Inhibitory Concentration (MIC) Testing Protocol • 1. […]
The culture was maintained as a glycerol stock at −80° C. in cryovials. […] Reading of the results was carried out by measuring absorbance at 600 nm for each sample at the beginning of the test (tzero) and after incubation (tendpoint). tendpoint was chosen at 48 hours for bacteria. The difference in absorbance between tendpoint and tzero was used to assign a score (Δ>0.2 confirms growth while Δ≦0.2 confirms no growth) from which the MIC values were calculated.

SMILES: Cn1sc2ccccc2c1=O [MBIT, 2-methyl-1,2-benzothiazol-3(2H)-one]
- Minimum Concentration (active ppm) to Inhibit Growth, active alone: 62 ppm

SMILES: Cc1cc(O)ccc1Cl [Chlorocresol, 4-chloro-3-methylphenol]
- Minimum Concentration (active ppm) to Inhibit Growth, active alone: 1539 ppm
